Results on 14 compounds are retold here after ChEMBL document CHEMBL1136158, “Effect of the acyl groups on O-->N acyl migration in the water-soluble prodrugs of HIV-1 protease inhibitor” (Bioorg Med Chem Lett, 2003).

Converted amounts (≈) assume the structure as drawn.

Series [1] can be described thus: Solubility ratio of prodrug versus parent drug. The series is classed as physicochemical.
Series [2] can be described thus: Time required for 50% release of parent drug in phosphate buffered saline (PBS) at 37 degrees Centigrade. In kind it is ADME. Particulars: buffer.
Series [3] is described as follows: Dissociation constant was determined. The series is classed as physicochemical.

As a reminder, the solubility is how much of the substance goes into solution per volume. A high value points to a readily soluble substance. For the compound `CC(C)(C)NC(=O)[C@H]1N(C(=O)[C@@H](O)[C@H](Cc2ccccc2)NC(=O)OCc2ccccc2)CSC1(C)C`, in “physchem”, the concentration in solution (solubility) came to 47 µg/mL (≈ 89.1 µM).

In general, pKa refers to the negative logarithm of the acid dissociation constant. In turn, `CC(C)(C)NC(=O)[C@H]1N(C(=O)[C@@H](OC(=O)OCc2ccccc2)[C@@H](N)Cc2ccccc2)CSC1(C)C.Cl` yielded a solubility in “physchem” of 21000 µg/mL. In series [1], the Solubility ratio is given as 449. In series [2], the T1/2 was < 1 min. The pKa in series [3] amounted to 3.2.

Regarding `CC(C)(C)NC(=O)[C@H]1N(C(=O)[C@@H](OC(=O)c2ccc(Cl)cc2)[C@@H](N)Cc2ccccc2)CSC1(C)C.Cl`, in “physchem”, the solubility stood at 4300 µg/mL. Also, the Solubility ratio in series [1] was found to be 154. In addition, the T1/2 in series [2] is listed as 16 min.

As to `Cc1ccc(C(=O)O[C@H](C(=O)N2CSC(C)(C)[C@H]2C(=O)NC(C)(C)C)[C@@H](N)Cc2ccccc2)cc1.Cl`, in the series “physchem”, the concentration in solution (solubility) was 6200 µg/mL. Also, in series [1], the Solubility ratio is given as 155. Moreover, the T1/2 in series [2] amounted to 44 min.

In “physchem”, `CC(C)(C)NC(=O)[C@H]1N(C(=O)[C@@H](O)[C@H](Cc2ccccc2)NC(=O)c2ccccc2)CSC1(C)C` had a solubility of 120 µg/mL (≈ 241 µM).

In the series “physchem”, `CC(C)(C)NC(=O)[C@H]1N(C(=O)[C@@H](O)[C@H](Cc2ccccc2)NC(=O)Cc2ccccc2)CSC1(C)C` displayed a solubility of 97 µg/mL (≈ 190 µM).

Consider `CC(C)(C)NC(=O)[C@H]1N(C(=O)[C@@H](OC(=O)c2ccc([N+](=O)[O-])cc2)[C@@H](N)Cc2ccccc2)CSC1(C)C.Cl`, for which the solubility in “physchem” amounted to 13000 µg/mL. Also, in series [1], the Solubility ratio stood at 228. Moreover, in series [2], the T1/2 worked out at 2.6 min.

For `Cc1cccc(C)c1OCC(=O)O[C@H](C(=O)N1CSC(C)(C)[C@H]1C(=O)NC(C)(C)C)[C@@H](N)Cc1ccccc1.Cl`, the concentration in solution in “physchem” (solubility) was 13000 µg/mL. Further, the Solubility ratio in series [1] stood at 8666. For the same compound, in series [2], the T1/2 is given as < 1 min.

Turning to `CC(C)(C)NC(=O)[C@H]1N(C(=O)[C@@H](OC(=O)Cc2ccccc2)[C@@H](N)Cc2ccccc2)CSC1(C)C.Cl`, the solubility in “physchem” came out at 33000 µg/mL. The Solubility ratio in series [1] was 340. Besides, the T1/2 in series [2] is 2.2 min. This compound also returned a pKa in series [3] of 4.31.

Compound `COc1ccc(C(=O)O[C@H](C(=O)N2CSC(C)(C)[C@H]2C(=O)NC(C)(C)C)[C@@H](N)Cc2ccccc2)cc1.Cl` displayed a solubility in the series “physchem” of 16000 µg/mL. Further, in series [1], the Solubility ratio turned out to be 211. For the same compound, in series [2], the T1/2 is listed as 67 min.

As for `CC(C)(C)NC(=O)[C@H]1N(C(=O)[C@@H](O)[C@H](Cc2ccccc2)NC(=O)c2ccc([N+](=O)[O-])cc2)CSC1(C)C`, the solubility in “physchem” came to 57 µg/mL (≈ 105 µM).

In “physchem”, `COc1ccc(C(=O)N[C@@H](Cc2ccccc2)[C@H](O)C(=O)N2CSC(C)(C)[C@H]2C(=O)NC(C)(C)C)cc1` registered a solubility of 76 µg/mL (≈ 144 µM).

In the case of `CC(C)(C)NC(=O)[C@H]1N(C(=O)[C@@H](O)[C@H](Cc2ccccc2)NC(=O)c2ccc(Cl)cc2)CSC1(C)C`, in “physchem”, the concentration in solution (solubility) was 28 µg/mL (≈ 52.6 µM).

As to `CC(C)(C)NC(=O)[C@H]1N(C(=O)[C@@H](OC(=O)c2ccccc2)[C@@H](N)Cc2ccccc2)CSC1(C)C.Cl`, the concentration in solution in the series “physchem” (solubility) was 15000 µg/mL. In addition, the Solubility ratio in series [1] was 125. Also, the T1/2 in series [2] is listed as 30 min. Moreover, in series [3], the pKa is 4.2.
